Earlier results on one substance are cited in publication PMC9854340 (RSC Advances, 2023).

The test system of data set [1] is HL-60 human myeloblastic leukemia cells. Conditions: HL-60 cells, MTT; data taken from a previous report.
The conditions of data set [2]: folding square to folded form; CH3CN-d3; van't Hoff plot; previous report.

Take Ascidiacyclamide [Peptide 1a]: the ED50 in data set [1] is 32.9 ± 0.9 µg/mL. Moreover, in data set [2], the “ΔH°” value was -2.28 kcal/mol and the “ΔS°” value is -0.009417 kcal/mol.
